The assay concerns the target T1, WIZ protein (HiBit-WIZ fusion protein) (Homo sapiens, UniProt O95785+Q96SW2).
T1 construct: expressed in transfected cells
Kind of assay: Quantification of WIZ protein levels in HiBit tag fusion protein assay (WIZ HiBit assay in 293T cells). In kind it is cell-based. More on the design: remaining activity / Dmax: dose or concentration left out as unconfirmed. The essentials:
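Luminescence after LgBit complementation quantified remaining HiBit-WIZ in lysates of single-copy stable 293T lines. Cells dosed ~18 h at 37 °C with 10-point, 5-fold dilutions (highest 25 μM); DMSO set to 100%, fitted curve gave % remaining at 25 μM (Amax).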

Setting [1] is: HEK-293T, 100 − Amax, at 25 uM; 293T cells; read-out: % degradation of WIZ (100 − Amax).
Setting [2] is: HEK-293T, DMSO-normalized, curve-fitted percentage of WIZ-HiBit remaining at 25 uM; 293T cells; read-out: WIZ Amax.
Where [3] appears, read: WIZ HiBit assay in 293T cells; 10-point, 5-fold dose response, highest concentration 25 μM, about 18 hours; read-out: WIZ AC50.
The mark [4] stands for this setting: HEK-293T, read-out: % degradation of WIZ (100 − Amax).

Read-outs that look alike come from different tables or passages of the source.

T1 sequence (O95785 whole entry, the tested form may be a part): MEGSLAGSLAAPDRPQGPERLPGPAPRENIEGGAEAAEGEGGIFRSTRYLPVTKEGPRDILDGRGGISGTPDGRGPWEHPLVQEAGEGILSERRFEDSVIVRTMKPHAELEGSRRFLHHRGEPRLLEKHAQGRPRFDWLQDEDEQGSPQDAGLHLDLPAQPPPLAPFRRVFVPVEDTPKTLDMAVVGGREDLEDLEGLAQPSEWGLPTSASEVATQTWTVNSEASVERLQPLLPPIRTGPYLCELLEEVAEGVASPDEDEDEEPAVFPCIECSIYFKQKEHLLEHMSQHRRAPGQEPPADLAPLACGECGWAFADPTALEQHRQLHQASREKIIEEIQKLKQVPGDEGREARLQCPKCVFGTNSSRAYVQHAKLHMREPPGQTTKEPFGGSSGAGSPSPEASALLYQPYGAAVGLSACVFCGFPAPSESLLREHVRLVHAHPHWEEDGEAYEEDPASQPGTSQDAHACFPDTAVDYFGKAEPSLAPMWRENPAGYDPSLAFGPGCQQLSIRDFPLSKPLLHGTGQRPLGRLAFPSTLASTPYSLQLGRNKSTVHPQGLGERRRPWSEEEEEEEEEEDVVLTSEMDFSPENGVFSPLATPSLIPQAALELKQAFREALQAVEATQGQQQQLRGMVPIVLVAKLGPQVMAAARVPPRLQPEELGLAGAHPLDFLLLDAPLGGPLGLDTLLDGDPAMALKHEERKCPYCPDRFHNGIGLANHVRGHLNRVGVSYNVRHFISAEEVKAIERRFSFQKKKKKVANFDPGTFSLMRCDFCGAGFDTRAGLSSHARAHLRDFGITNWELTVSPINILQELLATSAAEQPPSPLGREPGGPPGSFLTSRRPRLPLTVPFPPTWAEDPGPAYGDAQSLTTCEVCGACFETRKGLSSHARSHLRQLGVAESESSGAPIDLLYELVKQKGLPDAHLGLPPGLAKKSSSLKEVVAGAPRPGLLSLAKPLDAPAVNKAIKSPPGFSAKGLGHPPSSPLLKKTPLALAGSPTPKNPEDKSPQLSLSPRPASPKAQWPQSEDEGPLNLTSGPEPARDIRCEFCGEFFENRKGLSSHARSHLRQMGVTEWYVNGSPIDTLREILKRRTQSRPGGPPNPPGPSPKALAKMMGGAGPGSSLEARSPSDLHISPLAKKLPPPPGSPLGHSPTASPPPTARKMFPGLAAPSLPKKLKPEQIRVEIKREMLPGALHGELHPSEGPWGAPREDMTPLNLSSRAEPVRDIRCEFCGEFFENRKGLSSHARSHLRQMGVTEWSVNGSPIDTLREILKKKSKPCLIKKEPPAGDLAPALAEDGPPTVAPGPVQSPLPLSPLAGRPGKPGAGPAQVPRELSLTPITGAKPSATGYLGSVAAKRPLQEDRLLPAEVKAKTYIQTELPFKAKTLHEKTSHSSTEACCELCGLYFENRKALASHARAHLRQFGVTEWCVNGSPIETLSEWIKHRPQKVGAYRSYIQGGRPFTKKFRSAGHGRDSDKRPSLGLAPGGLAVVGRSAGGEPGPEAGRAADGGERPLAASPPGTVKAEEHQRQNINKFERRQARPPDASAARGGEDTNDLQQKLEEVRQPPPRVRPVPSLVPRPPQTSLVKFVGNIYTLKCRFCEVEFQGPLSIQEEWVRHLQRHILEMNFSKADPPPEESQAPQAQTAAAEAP
T1 sequence (Q96SW2 whole entry, the tested form may be a part): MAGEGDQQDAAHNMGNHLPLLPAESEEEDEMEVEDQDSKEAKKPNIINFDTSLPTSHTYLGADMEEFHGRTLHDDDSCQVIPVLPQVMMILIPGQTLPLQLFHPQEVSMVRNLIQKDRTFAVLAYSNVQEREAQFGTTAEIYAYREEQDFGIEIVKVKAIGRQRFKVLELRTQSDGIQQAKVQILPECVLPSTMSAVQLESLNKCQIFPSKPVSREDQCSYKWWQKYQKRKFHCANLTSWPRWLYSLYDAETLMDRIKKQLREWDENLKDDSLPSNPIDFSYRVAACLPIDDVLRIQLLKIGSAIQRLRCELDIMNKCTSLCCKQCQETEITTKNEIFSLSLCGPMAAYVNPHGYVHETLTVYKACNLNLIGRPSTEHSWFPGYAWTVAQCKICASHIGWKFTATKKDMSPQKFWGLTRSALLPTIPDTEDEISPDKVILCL
T1 sequence (Q16531 whole entry partner, the tested form may be a part): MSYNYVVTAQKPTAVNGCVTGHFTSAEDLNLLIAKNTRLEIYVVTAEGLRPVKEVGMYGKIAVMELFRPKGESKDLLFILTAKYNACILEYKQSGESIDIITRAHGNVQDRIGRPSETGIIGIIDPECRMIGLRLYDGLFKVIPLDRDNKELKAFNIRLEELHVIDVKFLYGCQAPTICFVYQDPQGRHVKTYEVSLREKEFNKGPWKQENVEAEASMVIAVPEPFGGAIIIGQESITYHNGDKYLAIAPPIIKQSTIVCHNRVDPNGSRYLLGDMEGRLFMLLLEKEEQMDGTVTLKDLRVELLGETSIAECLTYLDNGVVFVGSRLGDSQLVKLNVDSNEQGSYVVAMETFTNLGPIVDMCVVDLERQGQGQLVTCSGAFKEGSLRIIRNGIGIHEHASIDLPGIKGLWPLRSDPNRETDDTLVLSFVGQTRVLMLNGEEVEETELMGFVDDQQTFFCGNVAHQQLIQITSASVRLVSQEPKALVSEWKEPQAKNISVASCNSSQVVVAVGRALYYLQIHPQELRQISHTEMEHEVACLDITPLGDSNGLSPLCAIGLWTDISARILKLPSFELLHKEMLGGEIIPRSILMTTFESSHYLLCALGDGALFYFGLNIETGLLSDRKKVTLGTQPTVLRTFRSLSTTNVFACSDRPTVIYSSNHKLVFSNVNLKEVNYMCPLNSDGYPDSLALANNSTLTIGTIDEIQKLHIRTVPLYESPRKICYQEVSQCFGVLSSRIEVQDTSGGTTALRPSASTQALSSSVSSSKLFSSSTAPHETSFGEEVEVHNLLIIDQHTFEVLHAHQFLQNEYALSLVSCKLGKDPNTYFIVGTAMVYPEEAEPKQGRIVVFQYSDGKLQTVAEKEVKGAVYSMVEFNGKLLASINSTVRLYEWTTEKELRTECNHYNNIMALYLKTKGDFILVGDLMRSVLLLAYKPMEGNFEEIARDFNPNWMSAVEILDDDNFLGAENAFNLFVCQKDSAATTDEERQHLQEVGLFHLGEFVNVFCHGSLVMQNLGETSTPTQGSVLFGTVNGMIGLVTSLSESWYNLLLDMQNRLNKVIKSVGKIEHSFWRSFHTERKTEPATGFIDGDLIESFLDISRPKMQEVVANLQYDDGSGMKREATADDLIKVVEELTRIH

`O=C1CCN(c2cnn3ccc(CC4CCN(CCC5CCCCC5)CC4)cc23)C(=O)N1` [Example 6, 1-(5-((1-(2-cyclohexylethyl)piperidin-4-yl)methyl)pyrazolo[1,5-a]pyridin-3-yl)dihydropyrimidine-2,4(1H,3H)-dione]: the Dmax at 25 µM under setting [1] was 89%. Further, under setting [2], the remaining activity at 25 µM stood at 11%. In addition, under setting [3], the DC50 worked out at 13 nM.

With `O=C1CCN(c2cnn3ccc(CC4CCN(CCC5CCOCC5)CC4)cc23)C(=O)N1` [Example 11, 1-(5-((1-(2-(tetrahydro-2H-pyran-4-yl)ethyl)piperidin-4-yl)methyl)pyrazolo[1,5-a]pyridin-3-yl)dihydropyrimidine-2,4(1H,3H)-dione], the Dmax at 25 µM under setting [1] came out at 84%. Under setting [2], the remaining activity at 25 µM came to 16%. For the same molecule, under setting [3], the DC50 came out at 55 nM.

Regarding `O=C1CCN(c2cnn3ccc(CN4CCN(C(=O)C5(C(F)(F)F)CC5)CC4)cc23)C(=O)N1` [Example 184, 1-(5-((4-(1-(trifluoromethyl)cyclopropane-1-carbonyl)piperazin-1-yl)methyl)pyrazolo[1,5-a]pyridin-3-yl)dihydropyrimidine-2,4(1H,3H)-dione], the Dmax at 25 µM under setting [1] worked out at 29%. For the same molecule, under setting [2], the remaining activity at 25 µM worked out at 71%. The DC50 under setting [3] was 1630 nM.

As to `C[C@H]1CN(Cc2ccn3ncc(N4CCC(=O)NC4=O)c3c2)CCN1Cc1cccnc1` [Example 208], the Dmax at 25 µM under setting [1] is 60%. For the same molecule, under setting [2], the remaining activity at 25 µM amounted to 40%. Moreover, the DC50 under setting [3] is 580 nM.

On to `C[C@H]1CN(Cc2ccn3ncc(N4CCC(=O)NC4=O)c3c2)CCN1C1CCC(F)(F)CC1` [Example 334], for which, under setting [1], the Dmax at 25 µM was 85%. Moreover, the remaining activity at 25 µM under setting [2] is 15%. Further, the DC50 under setting [3] worked out at 32 nM.

In the case of `CC(C)CN1CC[C@H](Cc2ccn3ncc(N4CCC(=O)NC4=O)c3c2)C[C@@H]1C` [Example 72], the Dmax at 25 µM under setting [1] came out at 87%. Moreover, under setting [2], the remaining activity at 25 µM is 13%. Under setting [3], the DC50 worked out at 6 nM.

As to `CCN(C)C(=O)N1CC[C@@H](Cc2ccn3ncc(N4CCC(=O)NC4=O)c3c2)C[C@@H]1C` [Example 299, (2S,4R)-4-((3-(2,4-dioxotetrahydropyrimidin-1(2H)-yl)pyrazolo[1,5-a]pyridin-5-yl)methyl)-N-ethyl-N,2-dimethylpiperidine-1-carboxamide], under setting [4], the Dmax was determined as 82%. Besides, the remaining activity (HEK-293T, read-out: WIZ Amax) stood at 18%. Moreover, the DC50 (read-out: WIZ AC50; WIZ HiBit assay in 293T cells; 10-point, 5-fold dose response, highest concentration 25 μM, about 18 hours) was determined as 9 nM.

In the case of `COc1ccc(CN2CCC(Cc3ccn4ncc(N5CCC(=O)NC5=O)c4c3)CC2)cc1` [Example 61, 1-(5-((1-(4-methoxybenzyl)piperidin-4-yl)methyl)pyrazolo[1,5-a]pyridin-3-yl)dihydropyrimidine-2,4(1H,3H)-dione], the Dmax at 25 µM under setting [1] is 62%. Also, the remaining activity at 25 µM under setting [2] worked out at 38%. Moreover, under setting [3], the DC50 turned out to be 1740 nM.

Regarding `CC(C)(C)CN1CCC(Cc2ccn3ncc(N4CCC(=O)NC4=O)c3c2)CC1` [Example 110], under setting [1], the Dmax at 25 µM is 79%. Moreover, under setting [2], the remaining activity at 25 µM came out at 21%. For the same molecule, under setting [3], the DC50 came out at 44 nM.

Consider `O=C1CCN(c2cnn3ccc(CC4CCN(C(=O)CCC5CCCCC5)CC4)cc23)C(=O)N1` [Example 103], for which, under setting [1], the Dmax at 25 µM came out at 28%. Also, under setting [2], the remaining activity at 25 µM came out at 72%. Besides, under setting [3], the DC50 was found to be 82 nM.

Regarding `C[C@H]1CN(CC2CCCCC2)CCN1Cc1ccn2ncc(N3CCC(=O)NC3=O)c2c1` [Example 221], the Dmax at 25 µM under setting [1] came out at 54%. The remaining activity at 25 µM under setting [2] was 46%. The DC50 under setting [3] came to 318 nM.

Consider `COc1ccnc(N2CCC(Cc3ccn4ncc(N5CCC(=O)NC5=O)c4c3)CC2)n1` [Example 69, 1-(5-((1-(4-methoxypyrimidin-2-yl)piperidin-4-yl)methyl)pyrazolo[1,5-a]pyridin-3-yl)dihydropyrimidine-2,4(1H,3H)-dione], for which the Dmax under setting [4] stood at 35%. In addition, the remaining activity (HEK-293T, read-out: WIZ Amax) turned out to be 65%. The DC50 under setting [3] stood at 350 nM.

Take `O=C1CCN(c2cnn3ccc(CC4CCN(Cc5cc(F)cc(F)c5)CC4)cc23)C(=O)N1` [Example 44, 1-(5-((1-(3,5-difluorobenzyl)piperidin-4-yl)methyl)pyrazolo[1,5-a]pyridin-3-yl)dihydropyrimidine-2,4(1H,3H)-dione]: under setting [1], the Dmax at 25 µM turned out to be 70%. Besides, under setting [2], the remaining activity at 25 µM was determined as 30%. Under setting [3], the DC50 is 43 nM.

For the molecule `CC(C)CN1CCCN(Cc2ccn3ncc(N4CCC(=O)NC4=O)c3c2)CC1` [Example 250, 1-(5-((4-isobutyl-1,4-diazepan-1-yl)methyl)pyrazolo[1,5-a]pyridin-3-yl)dihydropyrimidine-2,4(1H,3H)-dione], the Dmax at 25 µM under setting [1] is 41%. For the same molecule, under setting [2], the remaining activity at 25 µM was found to be 59%. In addition, under setting [3], the DC50 came to 1350 nM.

In the case of `C[C@H]1C[C@H](Cc2ccn3ncc(N4CCC(=O)NC4=O)c3c2)CCN1CC1CCCCC1` [Example 143], under setting [1], the Dmax at 25 µM came to 88%. Further, under setting [2], the remaining activity at 25 µM was 12%. For the same molecule, the DC50 under setting [3] worked out at 4 nM.

`O=C1CCN(c2cnn3ccc(CC4CCN(S(=O)(=O)C5CCCCC5)CC4)cc23)C(=O)N1` [Example 81]: the Dmax at 25 µM under setting [1] came to 92%. Besides, the remaining activity at 25 µM under setting [2] turned out to be 8%. For the same molecule, the DC50 under setting [3] is 15 nM.

For the molecule `O=C1CCN(c2cnn3ccc(CC4CCN(S(=O)(=O)CC5CC5)CC4)cc23)C(=O)N1` [Example 84], the Dmax at 25 µM under setting [1] stood at 87%. In addition, the remaining activity at 25 µM under setting [2] came out at 13%. Further, the DC50 under setting [3] amounted to 55 nM.

Turning to `O=C1CCN(c2cnn3ccc(CC4CCN(C(=O)CCc5ccccc5)CC4)cc23)C(=O)N1` [Example 102], the Dmax at 25 µM under setting [1] was 40%. The remaining activity at 25 µM under setting [2] was determined as 60%. Further, under setting [3], the DC50 amounted to 165 nM.

Consider `C[C@H]1C[C@H](Cc2ccn3ncc(N4CCC(=O)NC4=O)c3c2)CCN1C[C@H]1CCC(F)(F)C1` [Example 307, 1-(5-(((2S,4R)-1-(((S)-3,3-difluorocyclopentyl)methyl)-2-methylpiperidin-4-yl)methyl)pyrazolo[1,5-a]pyridin-3-yl)dihydropyrimidine-2,4(1H,3H)-dione], for which the Dmax at 25 µM under setting [1] came out at 84%. Besides, the remaining activity at 25 µM under setting [2] worked out at 16%. Besides, the DC50 under setting [3] stood at 6 nM.

On to `CC(C)CN1CCN(Cc2ccn3ncc(-n4cc(F)c(=O)[nH]c4=O)c3c2)C[C@@H]1C` [Example 358, (S)-5-fluoro-1-(5-((4-isobutyl-3-methylpiperazin-1-yl)methyl)pyrazolo[1,5-a]pyridin-3-yl)pyrimidine-2,4(1H,3H)-dione], for which the Dmax at 25 µM under setting [1] is 86%. Also, under setting [2], the remaining activity at 25 µM was 14%. In addition, under setting [3], the DC50 was found to be 128 nM.

Turning to `C[C@H]1CN(Cc2ccn3ncc(N4CCC(=O)NC4=O)c3c2)CCN1C(=O)C1CCC1` [Example 344, (S)-1-(5-((4-(cyclobutanecarbonyl)-3-methylpiperazin-1-yl)methyl)pyrazolo[1,5-a]pyridin-3-yl)dihydropyrimidine-2,4(1H,3H)-dione], the Dmax at 25 µM under setting [1] is 35%. Moreover, under setting [2], the remaining activity at 25 µM turned out to be 65%. Besides, the DC50 under setting [3] amounted to 1070 nM.

As for `C[C@H]1C[C@H](Cc2ccn3ncc(N4CCC(=O)NC4=O)c3c2)CCN1CC(F)F` [Example 274, 1-(5-(((2S,4R)-1-(2,2-difluoroethyl)-2-methylpiperidin-4-yl)methyl)pyrazolo[1,5-a]pyridin-3-yl)dihydropyrimidine-2,4(1H,3H)-dione], the Dmax at 25 µM under setting [1] stood at 77%. Moreover, the remaining activity at 25 µM under setting [2] was found to be 23%. The DC50 under setting [3] turned out to be 32 nM.

For the molecule `C[C@H]1CC(F)(Cc2ccn3ncc(N4CCC(=O)NC4=O)c3c2)CCN1CC1CCC(F)(F)CC1` (single isomer, unassigned) [Example 308], the Dmax at 25 µM under setting [1] was 77%. In addition, the remaining activity at 25 µM under setting [2] came out at 23%. Also, the DC50 under setting [3] amounted to 44 nM.

As to `CO[C@H]1CC[C@@H](CN2CCN(Cc3ccn4ncc(N5CCC(=O)NC5=O)c4c3)C[C@@H]2C)CC1` [Example 211, 1-(5-(((S)-4-(((1s,4R)-4-methoxycyclohexyl)methyl)-3-methylpiperazin-1-yl)methyl)pyrazolo[1,5-a]pyridin-3-yl)dihydropyrimidine-2,4(1H,3H)-dione], the Dmax at 25 µM under setting [1] worked out at 86%. Moreover, under setting [2], the remaining activity at 25 µM turned out to be 14%. The DC50 under setting [3] stood at 33 nM.

Regarding `CC(C)CS(=O)(=O)N1CCC(Cc2ccn3ncc(N4CCC(=O)NC4=O)c3c2)CC1` [Example 87], under setting [1], the Dmax at 25 µM stood at 79%. In addition, the remaining activity at 25 µM under setting [2] amounted to 21%. Also, the DC50 under setting [3] came to 25 nM.

Turning to `O=C1CCN(c2cnn3ccc(CC4CCN(CC5CCCO5)CC4)cc23)C(=O)N1` (stereo not drawn) [Example 15, 1-(5-((1-((tetrahydrofuran-2-yl)methyl)piperidin-4-yl)methyl)pyrazolo[1,5-a]pyridin-3-yl)dihydropyrimidine-2,4(1H,3H)-dione], the Dmax at 25 µM under setting [1] was 71%. Further, the remaining activity at 25 µM under setting [2] stood at 29%. In addition, the DC50 under setting [3] turned out to be 523 nM.

For `CC(C)C(=O)N1CC[C@@H](Cc2ccn3ncc(N4CCC(=O)NC4=O)c3c2)C[C@@H]1C` [Example 288], the Dmax at 25 µM under setting [1] came out at 80%. Moreover, the remaining activity at 25 µM under setting [2] was 20%. Besides, the DC50 under setting [3] is 8 nM.

Regarding `O=C1CCN(c2cnn3ccc(CN4CCN(CC56CC7CC(CC(C7)C5)C6)CC4)cc23)C(=O)N1` [Example 194, 1-(5-((4-(((3r,5r,7r)-adamantan-1-yl)methyl)piperazin-1-yl)methyl)pyrazolo[1,5-a]pyridin-3-yl)dihydropyrimidine-2,4(1H,3H)-dione], the Dmax at 25 µM under setting [1] came to 89%. For the same molecule, under setting [2], the remaining activity at 25 µM is 11%. Further, the DC50 under setting [3] was 3 nM.

(Values after patent US11787785B2 (NOVARTIS AG, priority 2021, dated 2023).)
